Test results from patent publication US7772383B2, “Chemical PCR: Compositions for enhancing polynucleotide amplification reactions” (The Trustees of Princeton University, priority 2002, dated 2010).

Columns and labels:
Taq polymerase = molecular target: T1, Taq polymerase (Thermus aquaticus, UniProt P19821); experiment: Taq polymerase activity assays at low temperature in the presence of additives; assay type: biochemical; settings: for Activity of Taq polymerase / Activation: 1.0M 1,5-pentanediol, 0.7M 1,6-hexanediol; for Activity of Taq polymerase: normalized to activity of control at 62° C.; for Activation: change in Taq activity versus control
T1 construct: purchased Stratagene
T1 sequence (P19821 whole entry): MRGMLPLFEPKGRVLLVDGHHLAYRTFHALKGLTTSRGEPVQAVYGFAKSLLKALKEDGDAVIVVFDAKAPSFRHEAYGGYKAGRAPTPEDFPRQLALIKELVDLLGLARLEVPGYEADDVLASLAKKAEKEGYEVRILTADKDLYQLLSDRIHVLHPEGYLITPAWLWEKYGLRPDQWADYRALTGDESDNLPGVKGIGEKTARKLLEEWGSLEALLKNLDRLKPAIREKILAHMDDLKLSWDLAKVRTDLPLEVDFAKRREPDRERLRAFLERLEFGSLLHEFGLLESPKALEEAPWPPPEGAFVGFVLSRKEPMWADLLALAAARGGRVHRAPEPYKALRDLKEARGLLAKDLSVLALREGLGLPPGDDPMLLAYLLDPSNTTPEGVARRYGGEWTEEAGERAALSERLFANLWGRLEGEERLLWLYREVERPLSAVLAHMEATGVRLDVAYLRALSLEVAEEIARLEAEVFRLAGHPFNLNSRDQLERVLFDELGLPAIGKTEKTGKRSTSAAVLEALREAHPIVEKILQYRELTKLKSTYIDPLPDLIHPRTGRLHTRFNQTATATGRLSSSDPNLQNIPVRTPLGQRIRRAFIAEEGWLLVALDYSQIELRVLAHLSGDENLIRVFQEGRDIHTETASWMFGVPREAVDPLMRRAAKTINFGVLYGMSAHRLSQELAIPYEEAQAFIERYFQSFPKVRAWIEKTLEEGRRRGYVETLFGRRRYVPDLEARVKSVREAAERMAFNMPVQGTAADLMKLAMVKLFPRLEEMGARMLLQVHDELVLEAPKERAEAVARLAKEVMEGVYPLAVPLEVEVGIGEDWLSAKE
Protocol: The measured polymerase activity, then, is in fact a function of two variables—temperature and additive concentration. The plot of measured activity versus temperature and additive concentration is a two-dimensional surface. While a truly comprehensive search for maximal polymerase activity would entail screening this entire surface, the number of experiments required to do so would of course be impractical. Therefore, polymerase activity was measured first as a function of temperature in the absence of additives and at one given, high additive concentration. The temperature that yielded the maximum activity of the polymerase at that concentration was then targeted for concentration gradient studies.
First, polymerase activity assays were carried out in the absence of additives and in the presence of 1.0M 1,5-pentanediol and 0.7M 1,6-hexanediol at temperatures between 46 and 62° C. Next, polymerase activity was studied at 53° C. in the presence of concentration gradients of 1,5-pentanediol, 2-pyrrolidone, sulfolane and tetramethylene sulfoxide. The concentrations tested were: 1,5-pentanediol: 1.0, 1.3, 1.5, 2.25, 3.0 and 3.5M; 2-pyrrolidone: 1.25, 1.5, 2.0 and 3.9M; sulfolane: 1.0, 1.5, 2.0 and 2.75M, tetramethylene sulfoxide: 1.0, 1.5, 2.0 and 3.0M.

[1] = tested on: human prostate-specific membrane antigen (PSM) cDNA; experiment: Pilot low temperature PCR of PSM with 1,5-pentanediol; assay type: biochemical; settings: for PSM Specificity: densitometric volume of target band as percent of total volume; for PSM Potency: normalized: 1,3-butanediol (95/72° C.) = 1
Protocol: Amplification reactions were carried out under the following general conditions. Those skilled in the art will appreciate, however, that to the extent that the conditions (set forth in this application) required for specific experiments described in this example were inconsistent with the following general conditions, limited exceptions to the following general conditions were made The general conditions were as follows: 10 Mm Tris-HCl (Ph 8.8), 50 Mm KCl, 1.5 Mm MgCl2, 0.01% (w/v) gelatin, 0.2 Um primers, 0.06 ng/ul template, 0.2 Mm each Dntp, 0.04 U/ul Taq polymerase. The templates used were bovine brain N-WASP cDNA (1518 bp), a 996 by segment of human myeloid leukocyte c-jun cDNA, a 511 by segment of human prostate-specific membrane antigen (PSM) cDNA, and bovine brain glycolipid transfer protein (GTP) cDNA (660 bp). cDNA synthesis was carried out using the FIRST-STRAND® RT-PCR kit from Stratagene on the respective mRNAs purchased from Clontech. All amplification reactions for gene were carried out using a single master batch of cDNA. Taq polymerase and dNTPs were obtained from Stratagene. Primers were obtained from Genosys. Primer melting temperatures (Tms) were calculated using the Genosys oligo calculator program. The sequences of the primers were as follows.
Polymerase chain reactions for the N-WASP gene were conducted on a ROBOCYCLER® Gradient 40 thermal cycler from Stratagene using 100 ul solutions in 600 ul thin-walled tubes. For expediency, amplification of c-jun, PSM and GTP was carried out in a ROBOCYCLER® Gradient 96 thermal cycler from Stratagene using 50 ul solutions in 200 ul thin-walled tubes. Prior to Taq polymerase addition, a hotstart protocol was carried out that consisted of an initial cycle of 95° C. for 5 minutes (11) to ensure complete first-strand separation, followed by a cycle of 54° C. for 5 minutes. Amplifications were run for 30 cycles. Denaturation was done for 1 minute at the minimum temperatures that yielded discernable amplification: 92° C. for N-WASP and 95° C. for c-jun, PSM and GTP. Extension was done at 72° C. for periods depending on target length: 2 minutes for N-WASP, 1.5 minutes for c-jun and GTP, and 1 minute for PSM. Annealings were carried out either at fixed concentrations of additives using temperature gradients of 38-56° C. for N-WASP and 44-58° C. for the other targets, or at varying concentrations of additives using fixed temperatures of 41° C. for N-WASP, 50° C. for c-jun and PSM, and 54° C. for GTP.
Amplification products were analyzed by agarose gel electrophoresis on 0.8% agarose gels in which 20 ul reaction products were loaded with 4 ul loading buffer. Gels were stained with ethidium bromide, visualized on a UV transilluminator (Fisher), and documented by photography. Densitometric quantitation of amplification products was carried out using IMAGE SCANNER® and IMAGE MASTER® software from Amersham Pharmacia. Background correction was done using the software's rolling disc method. […] GTP was used as the target because it has the lowest GC content of the three templates used. PCR reactions were carried out in the presence of 1.0 and 1.5M 1,5-pentanediol under the conditions of 85° C. denaturing and 53° C. extension, using a 50° C. annealing temperature. In addition, 1.5M and 2.0M 1,5-pentandediol were tested using an 80° C. denaturing temperature, with identical annealing and extension temperature. Finally, 2.0, 2.5, and 3.0M 1,5-pentanediol were tested in GTP amplification employing a 75° C. denaturation temperature.
PSM was also tested with 1.0 and 1.5M 1,5-pentanediol using a 85° C. denaturing/50° C. annealing/53° C. extension. The denaturation temperature was then lowered to 80° C., and 2.5M 1,5-pentanediol tested. Amplification of PSM using a 75° C. denaturing temperature was not attempted.

[2] = 80/50/53° C., 2.5 M 1,5-pentanediol
[3] = 85/50/53° C., 1.5 M 1,5-pentanediol

Compound: OCCCCCO [1,5-Pentanediol]
- Activation of Taq polymerase (Taq polymerase; 1.0M, within 49° C.-53° C.): exceeds 25%
- Activity of Taq polymerase (Taq polymerase; 47° C.): 0.30
- Activation (Taq polymerase; 47° C.): −9%
- Activity of Taq polymerase (Taq polymerase; 48° C.): 0.40
- Activation (Taq polymerase; 48° C.): −3%
- Activity of Taq polymerase (Taq polymerase; 49° C.): 0.54
- Activation (Taq polymerase; 49° C.): +10%
- Activity of Taq polymerase (Taq polymerase; 50° C.): 0.59
- Activation (Taq polymerase; 50° C.): +18%
- Activity of Taq polymerase (Taq polymerase; 51° C.): 0.64
- Activation (Taq polymerase; 51° C.): +21%
- Activity of Taq polymerase (Taq polymerase; 52° C.): 0.69
- Activation (Taq polymerase; 52° C.): +35%
- Activity of Taq polymerase (Taq polymerase; 53° C.): 0.70
- Taq polymerase activity at 3.5M (in words) (Taq polymerase; 53° C., 3.5M (36.4%)): residual activity
- Activation (Taq polymerase; 53° C.): +23%
- effect on Taq polymerase activity at high concentrations (in words) (Taq polymerase; 53° C., concentration gradients, compared with 2-pyrrolidone, sulfolane and tetramethylene sulfoxide): compromises polymerase activity to the least extent
- Activity of Taq polymerase (Taq polymerase; 54° C.): 0.63
- Activation (Taq polymerase; 54° C.): +3%
- Activity of Taq polymerase (Taq polymerase; 55° C.): 0.57
- Activation (Taq polymerase; 55° C.): −19%
- PSM Specificity [1, 2]: 92%
- PSM Potency [1, 2]: 1.40
- PSM Potency ([1]; 80/50/53° C., 2.5 M 1,5-pentanediol, listed as 1,5-pentanediol): Substantial amplification
- PSM Potency ([1]; 85/50/53° C., 1.0 M 1,5-pentanediol): 0.00
- PSM Potency ([1]; 85/50/53° C., 1.0 M 1,5-pentanediol, listed as 1,5-pentanediol): did not amplify the target sequence
- PSM Specificity [1, 3]: 86%
- PSM Potency [1, 3]: 2.08
- PSM Potency ([1]; 85/50/53° C., 1.5 M 1,5-pentanediol, listed as 1,5-pentanediol): successful
